Literature values as cited in patent publication US20160317610A1, “COMPOSITIONS AND METHODS FOR TREATING OVARIAN CANCER INCLUDING PREVENTING THE […]” (University of Southern California, priority 2013, published 2016).

Test system: advanced OC

SMILES: CC(C)[C@H]1C(=O)N[C@@H](CCCN=C(N)N)C(=O)NCC(=O)N[C@@H](CC(=O)O)C(=O)N[C@H](Cc2ccccc2)C(=O)N1C [Cilengitide, cyclo(L-Arg-Gly-L-Asp-D-Phe-N-methyl-L-Val)]
- clinical efficacy: failed to show clinical efficacy
